System: activated CaMKIIγ in KCL22 cells
Experiment: Western blot of CaMKIIγ autophosphorylation in KCL22 cells
Type: cell-based, human
Conditions: five days ATRA
Description: FIG. 9. Terminal differentiation/apoptosis of myeloid leukemia cells is associated with decreased CaMKIIγ activation. (A) Lysates from the HL60, NB4 and U937 myeloid cell lines treated with ATRA (1 μM) for the indicated period of time were subjected to Western blots. (B) Lysates from the indicated myeloid cell lines treated for five days with the indicated concentration of ATRA were subjected to Western blots. (C) Lysates from HL60 cells treated with TPA (0.1 μM) for the indicated time were subjected to Western blots. (D) Lysates from NB4 cells treated with arsenic trioxide (1 uM) for the indicated time were subjected to Western blots.
Antibodies and Western blots. Protein extracts, immunoprecipitations and Western blots were performed as previously detailed (Si J, Collins S J. IL-3-induced enhancement of retinoic acid receptor activity is mediated through Stat5, which physically associates with retinoic acid receptors in an IL-3-dependent manner. Blood 100: 4401-9 (2002)). Antibodies against CaMKI, CaMKIIγ, CaMKIV, c-myc, Stat3, Stat5, calmodulin, as well as the phosphospecific CaMKII (T286, 287) and phosphospecific CaMKI (T177) antibodies were from Santa Cruz Biotechnology. […]

Structure (SMILES): CC1=C(/C=C/C(C)=C/C=C/C(C)=C/C(=O)O)C(C)(C)CCC1 [ATRA, All-trans retinoic acid]
- activated CaMKIIγ level: did not exhibit any decrease

— patent US20080255244A1, “CaM Kinase II Inhibitor Improves Retinoic Acid Therapy and Inhibits the Proliferation of Myeloid Leukemia Cells” (Fred Hutchinson Cancer Research Center, priority 2007, published 2008)
